“And” between values parts separate entries of the source, which are not always exact repeats. Equal entries are not always repeated. Where two headings read alike, the source gives them in different places.
Assays:
[1] = system: adult female mice; experiment: SC-MET, subcutaneous Metrazole (pentylenetetrazol) test (chemically induced seizures); assay type: in vivo; conditions: for ED50: Mus musculus, sc, ED50 for protection
Procedure: (§1) Briefly, test compound was administered to adult female mice, followed by either electrical (60 Hz, 5 msec. pulse width […] intensity for 0.2 seconds) or chemical [Metrazole® (pentylenetetrazol)] challenge. […] Results are expressed either as percent protection at a given dose or as the ED50 for protection.
^+ SCMET = subcutaneous Metrazole ® test; results given as %
protection at a given dose (mg/kg) or ED50 (mg/kg).

[2] = system: adult female mice; experiment: MES, maximal electroshock test (electrically induced seizures); assay type: in vivo; conditions: Mus musculus; for responders at 100 mg/kg / responders at 31.6 mg/kg: read-out: MES (% protection)
Procedure: as §1
**MES = Maximal electroshock test; results given as % protection at a
given dose (mg/kg) or ED50 (mg/kg).

[3] = biological target: benzodiazepine receptor; experiment: inhibition of [^3 H]-flunitrazepam binding to the benzodiazepine receptor
Procedure: Anxiolytic activity was evaluated in vitro according to the method of Chiu et al. [Mol. Pharmacol. 21, 57 (1982)] by determining the IC50 for the inhibition of [^3 H]-flunitrazepam binding to the benzodiazepine receptor.
*Inhibition of [^3 Hflunitroazepam binding to the benzodiazepine

[4] = system: mouse; experiment: loss of righting reflex test procedure (ataxia); assay type: in vivo
Procedure: Compounds with anticonvulsant activity typically cause ataxia, an undesirable side effect, at some dose. Representative compounds of this invention were evaluated in a loss of righting reflex test procedure [A. P. Roszkowski, J. Pharmacol. Exp. Ther. 129, 75-81 (1960)]. Briefly, the compound to be evaluated was administered to a mouse which was then placed upside down in its cage. Failure to right itself within 20 seconds was considered to be loss of the righting reflex. Results are expressed as percent of mice losing righting reflex at a given dose.

[5] = system: mouse; experiment: exploratory light/dark test procedure (anxiolytic activity); assay type: in vivo
Procedure: Anxiolytic activity also was evaluated in vivo in an exploratory […] test procedure [Young et al., Soc. Neurosci. Abs. 14,207 (1988) and Costall et al., Brit. J. Pharmacol. 93,985 (1988)]. Briefly, test compound was administered to a mouse which was placed in a two compartment light-dark activity monitoring box. Control animals typically move to the dark side of the box to avoid the bright light. Animals treated with anxiolytic agents spend more time exploring the lit side of the box than control animals. […]
The following table summarizes the results of representative compounds of this invention in the light/dark exploratory test procedure for anxiolytic activity. Compounds were compared with diazepam as a reference standard at each dose level.

[6] = [^3 H]-flunitrazepam, in vitro, read-out: ^3 H-Flu binding IC50

For `Cc1c[nH]c(Cn2c(-c3ccc(Cl)cc3)nc3cccnc32)n1` [Example 11, 2-(4-Chlorophenyl)-3-(4-methyl-1H-imidazol-2-ylmethyl)-3H-imidazo[4,5-b]pyridine], which ED50 [1] is on record?
The ED50 was 16.8 mg/kg.

What about the responders at 100 mg/kg [2] of the same compound?
Its responders at 100 mg/kg is 0%.

And the IC50 [3, 6]?
The IC50 was 390 nM.

And the “% Loss of Righting Reflex” value ([4]; dose 100 mg/kg)?
The value was 0%.

What about the “% of Time in Lit Area, Compound” value ([5]; dose 1.0 mg/kg) of the same compound?
Its value is 38%.

What about the “% of Time in Lit Area, Compound” value ([5]; dose 3.16 mg/kg) of the same compound?
The value was 40%.

And the “% of Time in Lit Area, Compound” value ([5]; dose 10.0 mg/kg)?
Its value is 40%.

And the “% of Time in Lit Area, Compound” value ([5]; dose 31.6 mg/kg)?
The value was 53%.

What does the source list for `Clc1ccc(-c2nc3cccnc3n2Cc2ccccn2)cc1` [Example 1, 2-(4-Chlorophenyl)-3-(2-pyridinylmethyl)-3H-imidazo[4,5-b]pyridine]?
SC-MET (% protection) ([1]; dose 100 mg/kg): 37.5%; responders at 100 mg/kg [2]: 0%; IC50 [3, 6]: 7000 nM; % Loss of Righting Reflex ([4]; dose 100 mg/kg): 0%

What does the source list for `Clc1ccc(-c2nc3ccc(Cl)nc3n2Cc2ccccn2)cc1` [Example 3, 5-Chloro-2-(4-chlorophenyl)-3-(2-pyridinylmethyl)-3H-imidazo[4,5-b]pyridine]?
SC-MET (% protection) ([1]; dose 100 mg/kg): 62.5%; responders at 100 mg/kg [2]: 0%; IC50 [3, 6]: 3300 nM; % Loss of Righting Reflex ([4]; dose 100 mg/kg): 0%

For `Cc1ccc2nc(-c3ccc(Cl)cc3)n(Cc3ccccn3)c2n1` [Example 7, 2-(4-Chlorophenyl)-5-methyl-3-(2-pyridinylmethyl)-3H-imidazo[4,5-b]pyridine], which ED50 [1] is on record?
The ED50 was 29.4 mg/kg.

What about the ED50 ([2]; ED50 for protection) of the same compound?
Its ED50 is 76 mg/kg.

What about the IC50 [3, 6] of the same compound?
Its IC50 is 7300 nM.

And the “% Loss of Righting Reflex” value ([4]; dose 100 mg/kg)?
The value was 62.5%.

For `Cc1ccc(-c2nc3ccc(Cl)nc3n2Cc2ncc[nH]2)cc1` [Example 5, 5-Chloro-3-(1H-imidazol-2-ylmethyl)-2-(4-methylphenyl)-3H-imidazo[4,5-b]pyridine], which ED50 [1] is on record?
Its ED50 is 6.92 mg/kg.

And the responders at 100 mg/kg [2]?
Its responders at 100 mg/kg is 0%.

And the IC50 [3, 6]?
Its IC50 is 300 nM.

What about the “% Loss of Righting Reflex” value ([4]; dose 100 mg/kg) of the same compound?
The value was 0%.

`Cc1ccc(-c2nc3cccnc3n2Cc2nc(C)c[nH]2)cc1` [Example 12] was tested. Which ED50 [1] did it give?
Its ED50 is 14.8 mg/kg.

And the responders at 100 mg/kg [2]?
The responders at 100 mg/kg was 0%.

And the IC50 [3, 6]?
The IC50 was 220 nM.

And the “% Loss of Righting Reflex” value ([4]; dose 100 mg/kg)?
Its value is 0%.

And the “% of Time in Lit Area, Compound” value ([5]; dose 1.0 mg/kg)?
The value was 38%.

And the “% of Time in Lit Area, Compound” value ([5]; dose 3.16 mg/kg)?
The value was 40%.

What about the “% of Time in Lit Area, Compound” value ([5]; dose 10.0 mg/kg) of the same compound?
Its value is 51%.

What about the “% of Time in Lit Area, Compound” value ([5]; dose 31.6 mg/kg) of the same compound?
The value was 48%.

How did the ED50 [1] turn out when `Cc1ccc(-c2nc3ccc(Cl)nc3n2Cc2ccccn2)cc1` [Example 4, 5-Chloro-2-(4-methylphenyl)-3-(2-pyridinylmethyl)-3H-imidazo[4,5-b]pyridine] was run?
The ED50 was 38.8 mg/kg.

And the IC50 [3, 6]?
Its IC50 is 1600 nM.

What about the “% Loss of Righting Reflex” value ([4]; dose 100 mg/kg) of the same compound?
Its value is 0%.

What does the source list for `Clc1ccc(-c2nc3cccnc3n2Cc2ncc[nH]2)cc1` [Example 8, 2-(4-Chlorophenyl)-3-(1H-imidazol-2-ylmethyl)-3H-imidazo[4,5-b]pyridine]?
SC-MET (% protection) ([1]; dose 31.6 mg/kg): 0%; responders at 31.6 mg/kg [2]: 0%; IC50 [3, 6]: 410 nM; % Loss of Righting Reflex ([4]; dose 31.6 mg/kg): 0%

Which results are given for `Cc1ccc(-c2nc3cccnc3n2Cc2ccccn2)cc1` [Example 2, 2-(4-Methylphenyl)-3-(2-pyridinylmethyl)-3H-imidazo[4,5-b]pyridine]?
ED50 [1]: 48.7 mg/kg; responders at 100 mg/kg [2]: 25%; IC50 [3, 6]: 3100 nM; % Loss of Righting Reflex ([4]; dose 100 mg/kg): 0%

How did the “% of Time in Lit Area, Diazepam” value ([5]; diazepam reference, row of dose 0.01 mg/kg) turn out when `CN1C(=O)CN=C(c2ccccc2)c2cc(Cl)ccc21` [Diazepam, diazepam, reference compound] was run?
Its value is 27%.

What about the “% of Time in Lit Area, Diazepam” value ([5]; diazepam reference, row of dose 0.1 mg/kg) of the same compound?
The value was 27%.

What about the “% of Time in Lit Area, Diazepam” value ([5]; diazepam reference, row of dose 1.0 mg/kg, 1 mg/kg) of the same compound?
Its value is 28% and 26%.

And the “% of Time in Lit Area, Diazepam” value ([5]; diazepam reference, row of dose 3.16 mg/kg, 3.16 mg/kg)?
Its value is 26% and 27% and 28%.

What about the “% of Time in Lit Area, Diazepam” value ([5]; diazepam reference, row of dose 5.62 mg/kg) of the same compound?
The value was 27%.

What about the “% of Time in Lit Area, Diazepam” value ([5]; diazepam reference, row of dose 10.0 mg/kg, 10 mg/kg) of the same compound?
The value was 26% and 28%.

What about the “sedation, Diazepam” value ([5]; diazepam reference, row of dose 17.8 mg/kg) of the same compound?
Its value is “sedation”.

And the “% of Time in Lit Area, Diazepam” value ([5]; diazepam reference, row of dose 31.6 mg/kg, 31.6 mg/kg)?
The value was 28% and 26%.

And the “% of Time in Lit Area, Diazepam (additional result)” value ([5]; dose of 10 mg/kg, additional result in footnote)?
Its value is 28%.

`Cc1ccc(-c2nc3ccc(C)nc3n2Cc2ccccn2)cc1` [Example 6, 5-Methyl-2-(4-methylphenyl)-3-(2-pyridinylmethyl)-3H-imidazo[4,5-b]pyridine] was tested. Which ED50 [1] did it give?
Its ED50 is 38.1 mg/kg.

What about the responders at 100 mg/kg [2] of the same compound?
The responders at 100 mg/kg was 12.5%.

What about the IC50 [3, 6] of the same compound?
The IC50 was 3900 nM.

And the “% Loss of Righting Reflex” value ([4]; dose 100 mg/kg)?
The value was 0%.

And the “% of Time in Lit Area, Compound” value ([5]; dose 3.16 mg/kg)?
Its value is 36%.

And the “% of Time in Lit Area, Compound” value ([5]; dose 10.0 mg/kg)?
Its value is 38%.

With `Clc1ccc(-c2nc3ccc(Cl)nc3n2Cc2ncc[nH]2)cc1` [Example 10, 5-Chloro-2-(4-chlorophenyl)-3-(1H-imidazol-2-ylmethyl)-3H-imidazo[4,5-b]pyridine] as the compound, how does the ED50 [1] read?
The ED50 was 8.6 mg/kg.

And the IC50 [3, 6]?
The IC50 was 130 nM.

What about the IC50 ([3]; obtained on reevaluation, read-out: ^3 H-Flu binding IC50 (reevaluation)) of the same compound?
Its IC50 is 160 nM.

And the “% Loss of Righting Reflex” value ([4]; dose 100 mg/kg)?
The value was 0%.

What about the “% of Time in Lit Area, Compound” value ([5]; dose 0.01 mg/kg) of the same compound?
Its value is 35%.

And the “% of Time in Lit Area, Compound” value ([5]; dose 0.1 mg/kg)?
The value was 37%.

And the “% of Time in Lit Area, Compound” value ([5]; dose 3.16 mg/kg)?
Its value is 49%.

What about the “% of Time in Lit Area, Compound” value ([5]; dose 5.62 mg/kg) of the same compound?
Its value is 49%.

What about the “% of Time in Lit Area, Compound” value ([5]; dose 10.0 mg/kg) of the same compound?
The value was 40%.

What about the “% of Time in Lit Area, Compound (additional result)” value ([5]; dose 10 mg/kg, additional result in footnote) of the same compound?
The value was 38%.

And the “sedation, Compound” value ([5]; mouse, in vivo, 17.8 mg/kg)?
The value was “sedation”.

For `Cc1ccc(-c2nc3cccnc3n2Cc2ncc[nH]2)cc1` [Example 9, 3-(1H-Imidazol-2-ylmethyl)-2-(4-methylphenyl)-3H-imidazo[4,5-b]pyridine], which ED50 [1] is on record?
Its ED50 is 15.4 mg/kg.

And the responders at 31.6 mg/kg [2]?
Its responders at 31.6 mg/kg is 0%.

And the IC50 [3, 6]?
Its IC50 is 140 nM.
